Test results reported in patent publication US20240408119A1, “DELIVERY OF THERAPEUTIC ALKALOID COMPOUNDS” (priority 2022, published 2024).
Where two headings read alike, the source gives them in different places.

How the values were obtained:
[1] = assay type: in vitro ADME, mouse; settings: prodrug remaining, 5 μM, 37° C.
Experimental: (§1) Each test was carried out in duplicate for each time point; 0 min, 15 min, 30 min, 60 min, 120, 240 min. […]

[2] = Hydrolysis Assay - Condition 2 (DI Water); assay type: physicochemical; settings: 25° C., 0.5 mM
Experimental: 50 μL of compound (10 mM) in DMSO was diluted into 950 μL of DI water to a final concentration of 0.5 mM. The hydrolysis kinetics were conducted at 25° C. and measured by LCMS at a certain time interval.
(§2) The corresponding LCMS chromatogram were recorded and the conversions were calculated by integration of each peak.
(§3) • 1) LCMS spectra were obtained using Agilent 1200G1956A or SHIMADZU LCMS-2020. Standard LCMS conditions were as follows (running time 1.55 minutes): • Acidic condition: Mobile Phase A: 0.0375% TFA in water (v/v). Mobile Phase B: 0.01875% TFA in acetonitrile (v/v); Column: Kinetex EVO C18 30*2.1 mm, 5 μm. • Basic condition: Mobile Phase A: 0.025% NH3·H2O in water (v/v). Mobile Phase B: Acetonitrile; Column: Kinetex EVO C18 2.1×30 mm, 5 μm. • 2) Conversion (%)=peak area 1/(peak area 1+peak area 2)*100%, peak area 1 is the integration of hydrolyzed product, peak area 2 is the integration of starting material.

[3] = Pharmacokinetics of 358, single IV in male C57BL/6 mice; assay type: in vivo, mouse
Experimental: Total fifteen male mice were used in this study with n=3 mice/time point with sparse sampling study design. Animals were administered through intravenous route with solution formulation of 358 at 2 mg/kg dose.
The extraction procedure for plasma/brain samples and the spiked plasma/brain calibration standards were identical (PMSF Stabilized Plasma and Brain used for Preparation of calibration standards):
(§4) A 20 μL of study sample plasma/brain or spiked plasma/brain calibration standard was added to individual pre-labeled micro-centrifuge tubes followed by 200 μL of internal standard prepared in acetonitrile (Rosuvastatin+Cetrizine, 50 ng/mL) was added except for blank, where 200 μL of acetonitrile was added. Samples were vortexed for 5 minutes. Samples were centrifuged for 10 minutes at a speed of 4000 rpm at 4° C. Following centrifugation, 200 μL of clear supernatant was transferred in 96 well plates and analyzed using LC-MS/MS.
Note: Brain samples were diluted (1-part of tissue: 2-part of buffer) and homogenized. The homogenate was submitted for bioanalysis and the concentrations (ng/mL) received were corrected with dilution factor (3×) and the final reported concentrations were represented in ng/g.
The plasma and brain concentration-time data of 358 and 001 were used for the pharmacokinetic analysis.
LLOQ: 358: 1.02 ng/mL for plasma and brain 001: 1.01 ng/mL for plasma and brain

[4] = Hydrolysis Assay - Condition 1 (SGF); assay type: physicochemical; settings: SGF with pepsin pH 1.5, 37° C., 0.5 mM
Experimental: 50 μL of compound (10 mM) in DMSO was diluted into 950 μL of Simulated Gastric Fluid (SGF) with pepsin (pH 1.5) to a final concentration of 0.5 mM. The hydrolysis kinetics were conducted at 37° C. and measured by LCMS at a certain time interval.
as §2, §3

[5] = assay type: in vitro ADME, human; settings: prodrug remaining, 5 μM, 37° C.
Experimental: as §1

[6] = Metabolic Stability in Human Hepatocytes; assay type: in vitro ADME; settings: cryopreserved human hepatocytes, 37° C.
Experimental: A 2.5 uL aliquot of 100 μM test compound was incubated with 247.5 uL of cryopreserved hepatocytes suspended in serum-free incubation medium at 5×10^5 viable cells/mL. The mixture was incubated at 37° C. and shaken at 500 rpm for the designated time points (0.5, 15, 30, 60, 90, or 120 min). At each time point, 25 μL aliquot of incubation mixture was transferred to 125 μL of cold acetonitrile containing internal standard, followed by centrifugation for 30 min at 3,220 g. 100 μL of supernatant was mixed with 100 μL of distilled water for analysis by LC-MS/MS. Peak areas were determined from extracted ion chromatograms and in vitro half-life (t1/2) was determined from the concentration vs time regression slope, in vitro t1/2=0.693/k. Conversion of the in vitro t1/2 (in min) into the in vitro intrinsic clearance (in vitro CLint, in μL/min/10^6 cells) is done using: in vitro CLint=kV/N.

[7] = in vivo; assay type: in vivo, mouse; settings: 001 (metabolite) in brain after 321 IV 2 mg/kg
Experimental: Total fifteen male mice were used in this study with n=3 mice/time point with sparse sampling study design. Animals were administered through intravenous route with solution formulation of 321 at 2 mg/kg dose.
as §4, with “The extraction procedure for plasma/brain samples and the spiked plasma/brain calibration standards were identical (PMSF Stabilized Plasma and Brain used for Preparation of calibration standards): A” for “A”, “(Rosuvastatin,” for “(Rosuvastatin+Cetrizine,”
(§5) Brain samples were diluted (1-part of tissue: 2-part of buffer) and homogenized. The homogenate was submitted for bioanalysis and the concentrations (ng/mL) received were corrected with dilution factor (3×) and the final reported concentrations were represented in ng/g.
The plasma and brain concentration-time data of 321 and 001 were used for the pharmacokinetic analysis.
LLOQ: 321: 1.02 ng/mL for plasma and brain 001: 1.01 ng/mL for plasma and brain

[8] = in vivo; cited from earlier work
[9] = in vivo; assay type: in vivo, mouse; settings: 001 (metabolite) in brain after 323 IV 2 mg/kg
Experimental: Total fifteen male mice were used in this study with n=3 mice/time point with sparse sampling study design. Animals were administered through intravenous route with solution formulation of 323 at 2 mg/kg dose.
as §4, with “The extraction procedure for plasma/brain samples and the spiked plasma/brain calibration standards were identical (PMSF Stabilized Plasma and Brain used for Preparation of calibration standards): A” for “A”
as §5
The plasma and brain concentration-time data of 323 and 001 were used for the pharmacokinetic analysis.
LLOQ: 323: 1.02 ng/mL for plasma and brain 001: 1.01 ng/mL for plasma and brain

[10] = fermentation, exposure to light, exposure to heat, aqueous medium; cited from earlier work

## COc1ccc([C@@]23CCC(OC(=O)OC(C)(C)C)=C[C@@H]2N(C)CC3)cc1OC [Compound 358, [(3aS,7aS)-3a-(3,4-dimethoxyphenyl)-1-methyl-3,4,5,7a-tetrahydro-2H-indol-6-yl] tert-butyl carbonate]
[1]; 0 min
  Mouse Plasma Prodrug (%): 100%
[1]; 15 min
  Mouse Plasma Prodrug (%): 14.8%
[1]; 30 min
  Mouse Plasma Prodrug (%): 10.3%
[1]; 60 min
  Mouse Plasma Prodrug (%): 5.4%
[1]; 120 min
  Mouse Plasma Prodrug (%): 0.0%
[1]; 240 min
  Mouse Plasma Prodrug (%): 0.0%
[2]; 1 min
  Condition 2 Conversion (%): 0%
[2]; 5 min
  Condition 2 Conversion (%): 0%
[2]; 30 min
  Condition 2 Conversion (%): 0%
[2]; 1 h
  Condition 2 Conversion (%): 0%
[2]; 4 h
  Condition 2 Conversion (%): 83.46%
[2]; 24 h
  Condition 2 Conversion (%): 100%
[3]; 358 after 358 IV 2 mg/kg
  brain concentrations quantifiable up to: ≤ 0.08 h
[3]; male, C57BL/6, mouse, brain, 358 after 358 IV 2 mg/kg, read-out: Brain concentrations (mean)
  concentration at 0.08 h: 18.3 ng/g
[3]; male, C57BL/6, mouse, in vivo, iv, 2 mg/kg
  plasma concentrations quantifiable up to: up to 0.25 h
[3]; male, C57BL/6, mouse, plasma, 358 after 358 IV 2 mg/kg, read-out: Plasma concentrations (mean)
  concentration at 0.08 h: 14.3 ng/mL
[3]; male, C57BL/6, mouse, plasma, 358 after 358 IV 2 mg/kg, 0.25 h, average of two values, read-out: Plasma concentrations (mean)
  concentration at 0.25 h: 1.51 ng/mL
[4]; 1 min
  Condition 1 Conversion (%): 0%
[4]; 5 min
  Condition 1 Conversion (%): 0%
[4]; 30 min
  Condition 1 Conversion (%): 0%
[4]; 1 h
  Condition 1 Conversion (%): 5%
[4]; 4 h
  Condition 1 Conversion (%): 100%
[4]; 24 h
  Condition 1 Conversion (%): 100%
[5]; 0 min
  Human Plasma Prodrug (%): 100%
[5]; 15 min
  Human Plasma Prodrug (%): 75.4%
[5]; 30 min
  Human Plasma Prodrug (%): 58.1%
[5]; 60 min
  Human Plasma Prodrug (%): 35.5%
[5]; 120 min
  Human Plasma Prodrug (%): 11.7%
[5]; 240 min
  Human Plasma Prodrug (%): 0.7%

## COc1ccc([C@@]23CCC(=O)C[C@@H]2N(C)CC3)cc1OC (racemic) [Compound 001, (3aS,7aS)-3a-(3,4-dimethoxyphenyl)-1-methyl-2,3,4,5,7,7a-hexahydroindol-6-one, reference compound]
[6]
  half-life: 17 min
  hepatocyte CLint: 40 µL/min/1e6 cells
[7]
  AUClast: 12.72 ng·h/g
[3]; 001 (metabolite) in brain after 358 IV 2 mg/kg
  AUClast: 190.88 ng·h/g
[8]
  half-life in plasma: less than 2 hours
[9]
  AUClast: 411.95 ng·h/g

## COc1ccc([C@@]23CCC(=O)C[C@@H]2N(C)CC3)cc1OC [Mesembrine, 3a-(3,4-dimethoxyphenyl)-octahydro-1-methyl-6H-indol-6-one]
[10]
  stability: unstable
